# Results reported in the NIST ThermoML archive (doi:10.1021/je060093l).
# Numbers after ± are expanded uncertainties.
# Key:
# [1] = Liquid, Ebulliometric method (Recirculating still)
# [2] = refractive index (Na D-line) (dimensionless); conditions: 298.15 K; 101.33 kPa; Liquid; Standard Abbe refractometry
smiles,measurement,setting,value
CCSCC [3-thiapentane],vapor or sublimation pressure,[1]; 333.82 K,35.84 ± 0.37 kPa
same,vapor or sublimation pressure,[1]; 338.63 K,42.73 ± 0.37 kPa
same,vapor or sublimation pressure,[1]; 344.7 K,52.89 ± 0.39 kPa
same,vapor or sublimation pressure,[1]; 350.02 K,63.3 ± 0.4 kPa
same,vapor or sublimation pressure,[1]; 353.56 K,71.09 ± 0.41 kPa
same,vapor or sublimation pressure,[1]; 358.41 K,83.03 ± 0.42 kPa
same,vapor or sublimation pressure,[1]; 361.02 K,90.03 ± 0.44 kPa
same,vapor or sublimation pressure,[1]; 361.03 K,90.03 ± 0.44 kPa
same,vapor or sublimation pressure,[1]; 365.05 K,101.92 ± 0.45 kPa
same,refractive index,[2],1.44 ± 0.0004
c1ccsc1 [thiophene],vapor or sublimation pressure,[1]; 328.01 K,37.5 ± 0.37 kPa
same,vapor or sublimation pressure,[1]; 331.52 K,42.75 ± 0.38 kPa
same,vapor or sublimation pressure,[1]; 337.52 K,53.02 ± 0.38 kPa
same,vapor or sublimation pressure,[1]; 341.13 K,60.12 ± 0.4 kPa
same,vapor or sublimation pressure,[1]; 346.44 K,71.92 ± 0.41 kPa
same,vapor or sublimation pressure,[1]; 350.46 K,82.01 ± 0.43 kPa
same,vapor or sublimation pressure,[1]; 353.38 K,90.03 ± 0.45 kPa
same,vapor or sublimation pressure,[1]; 356.73 K,99.99 ± 0.45 kPa
same,refractive index,[2],1.5255 ± 0.0004
CCCS [1-propanethiol],vapor or sublimation pressure,[1]; 310.52 K,34.6 ± 0.37 kPa
same,vapor or sublimation pressure,[1]; 315.47 K,41.96 ± 0.38 kPa
same,vapor or sublimation pressure,[1]; 320.68 K,51.03 ± 0.39 kPa
same,vapor or sublimation pressure,[1]; 325.73 K,61.23 ± 0.4 kPa
same,vapor or sublimation pressure,[1]; 330.38 K,72.02 ± 0.42 kPa
same,vapor or sublimation pressure,[1]; 334.62 K,83.15 ± 0.43 kPa
same,vapor or sublimation pressure,[1]; 337.03 K,90.03 ± 0.45 kPa
same,vapor or sublimation pressure,[1]; 340.63 K,101.19 ± 0.46 kPa
same,refractive index,[2],1.4353 ± 0.0004
Cc1ccccc1 [toluene],vapor or sublimation pressure,[1]; 352.64 K,38.32 ± 0.37 kPa
same,vapor or sublimation pressure,[1]; 356.84 K,44.23 ± 0.37 kPa
same,vapor or sublimation pressure,[1]; 361.31 K,51.31 ± 0.38 kPa
same,vapor or sublimation pressure,[1]; 367.88 K,63.37 ± 0.39 kPa
same,vapor or sublimation pressure,[1]; 372.12 K,72.27 ± 0.41 kPa
same,vapor or sublimation pressure,[1]; 375.63 K,80.42 ± 0.42 kPa
same,vapor or sublimation pressure,[1]; 379.44 K,90.03 ± 0.42 kPa
same,vapor or sublimation pressure,[1]; 379.45 K,90.03 ± 0.42 kPa
same,refractive index,[2],1.4939 ± 0.0004
"Cc1ccccc1C [1,2-dimethylbenzene]",refractive index,[2],1.5026 ± 0.0004
